Earlier results on four molecules are cited in publication PMC11259557 (Cancer Medicine, 2024).

On the set-up of series [1]: method as in PMID 26337806, PMID 27196567.

Where two headings read alike, the source gives them in different places.

For `CC(C)C[C@H](NC(=O)[C@H](CCc1ccccc1)NC(=O)CN1CCOCC1)C(=O)N[C@@H](Cc1ccccc1)C(=O)N[C@@H](CC(C)C)C(=O)[C@@]1(C)CO1` [carfilzomib], in the series on multiple myeloma (phase I trial), the DCR is recorded as 39%.
Consider `CC(C)C[C@H](NC(=O)[C@@H](NC(=O)c1cccc(-c2ccccc2)n1)[C@@H](C)O)B(O)O` [delanzomib], for which the “incidence of grade ≥3 diarrhea” value is given as 19% and the “incidence of peripheral neuropathy” value is recorded as 21%.
`CC(C)C[C@H](NC(=O)CNC(=O)c1cc(Cl)ccc1Cl)B(O)O` [ixazomib]: the “incidence of decreased platelet counts” value is 43%. For the same molecule, under “patients”, the “peripheral neuropathy, any grade” value is listed as 27% and the “peripheral neuropathy, grade 3” value is listed as 2%. In addition, where the note is “phase 1 study in RRMM”, the incidence of diarrhea is 38%, the “incidence of grade ≥3 diarrhea” value is 17%, the “incidence of peripheral neuropathy” value was 20% and the “rate of grade ≥3 AEs” value is recorded as 53%. Besides, for the setting “real-world settings”, the incidence of diarrhea is listed as 26.2%, the “incidence of peripheral neuropathy” value is given as 35%, the “incidence of ≥grade 3 diarrhea” value was 13.9% and the “incidence of ≥grade 3 peripheral neuropathy” value was 3%. The “participants who discontinued due to AEs” value (study by Kumar et al.) is given as 12%. Moreover, in series [1], the T max is 1 to 1.5 h and the half-life is 140 to 150 h. Also, in the series with multiple myeloma (monotherapy), the DCR is recorded as 50%.
For `COC[C@H](NC(=O)c1cnc(C)s1)C(=O)N[C@@H](COC)C(=O)N[C@@H](Cc1ccccc1)C(=O)[C@@]1(C)CO1` [oprozomib], the “patients who experience diarrhea” value is “Nearly all patients”.
